# Measurements reported in patent US20140243276A1, “SMAC MIMETIC (BIRINAPANT) FOR USE IN THE TREATMENT OF PROLIFERATIVE DISEASES (CANCER)” (TETRALOGIC PHARMACEUTICALS CORPORATION, priority 2011, published 2014).
# Several values for one entry are separate records, joined by “and”; a condition that tells them apart may be missing. Equal values may be shown once. Entries after “also recorded” stand apart in the source; their conditions may differ.
# Experiments:
# [1] = test system: MDA-MB-231 xenograft; assay: Tumor growth inhibition in MDA-MB-231 xenograft; assay type: in vivo, mice
# [2] = test system: apoptosis pathway (PARP cleavage, caspase-3/7, cleaved cytokeratin-18); assay: Phase 1 apoptosis pathway activation markers in patients; assay type: in vivo, human
# [3] = test system: advanced solid tumors and lymphoma; assay: Phase 1 anti-tumor activity in patients with refractory solid tumors or lymphoma; assay type: in vivo, human
# [4] = test system: Panc1; assay: Panc1 immunoblotting and Trypan blue staining, alone and with TRAIL; assay type: cell-based
# [5] = mouse, in vivo
# [6] = mouse, in vivo; remark: listed apart in the source
# [7] = in vivo
# [8] = human, in vivo
# [9] = test system: primary pancreatic tumors; conditions: mouse, in vivo
# Experimental: (§1) An additional 6 primary pancreatic tumors were evaluated at 60 mg/kg.
# [10] = Phase 1 safety and tolerability in patients; conditions: for tolerability: patients
# [11] = test system: primary pancreatic tumors; assay: Patient-derived primary pancreatic cancer explant model
# Experimental: as §1
# [12] = test system: primary human melanoma tumor xenograft; assay: Efficacy in primary human melanoma tumor xenograft models
# [13] = CRC Patient 01-202, dose cohort 0.36 mg/m^2
# [14] = CRC Patient 01-801, dose cohort 17.2 mg/m^2
# [15] = Melanoma Patient 01-703, dose cohort 11.5 mg/m^2
# [16] = patients with solid tumors and lymphoma
# [17] = 60 mg/kg i.p. twice weekly, 28 days
# [18] = TL32711 combined with carboplatin and paclitaxel
smiles,measurement,setting,value
"CC[C@H](NC(=O)[C@H](C)NC)C(=O)N1C[C@@H](O)C[C@H]1Cc1c(-c2[nH]c3cc(F)ccc3c2C[C@@H]2C[C@H](O)CN2C(=O)[C@H](CC)NC(=O)[C@H](C)NC)[nH]c2cc(F)ccc12 [TL32711, N-{1S-[2R-(6,6′-Difluoro-3′-{4S-hydroxy-1-[2S-(2S-methylamino-propionylamino)-butyryl]-pyrrolidin-2R-ylmethyl}-1H,1′H-[2,2′]biindolyl-3-ylmethyl)-4S-hydroxy-pyrrolidine-1-carbonyl]-propyl}-2S-methylamino-propionamide]",cIAP1 inhibition in tumors throughout the dosing interval at which significant tumor growth delay and regressions were observed,[1]; mice bearing MDA-MB-231 xenograft,> 75%
same,doses causing significant tumor growth inhibition and regressions,"[1]; q3D, MDA-MB-231 xenograft",≥ 2.5 mg/kg
same,PBMC PARD cleavage and plasma caspase-3 activity,[2],dose related increase
same,activated serum caspase-3/7 and cleaved cytokeratin-18 levels,[2],dose-related
same,cycles received before disease progression,[3]; [13],Patient received 6 cycles (24 weeks) of TL32711 before disease
same,metastatic lesions decreased on CT scan after 2 cycles,[3]; [13],CT scan; 3 of 5 metastatic lesions decreased after 2 cycles of
same,response by RECIST criteria after 2 cycles,[3]; [13],TL32711 - Stable Disease by RECIST criteria
same,clinical improvement during first 2 cycles,[3]; [14],Patient had marked clinical improvement of early satiety and pain
same,disease progression after 2 cycles,[3]; [14],Patient progressed with development of a new liver lesion after
same,patient's CEA after 1 cycle,[3]; [14],decreased (150 to 90)
same,photopenic lesion developed in a hepatic metastasis after 1 cycle,[3]; [14],4-5 cm
same,disease progression,[3]; [15],Progressed after 3rd cycle with increasing cutaneous lesions
same,response by RECIST criteria after 2 cycles,[3]; [15],Stable Disease by RECIST criteria after 2 cycles of TL32711
same,anti-tumor activity in patients (overall),[3]; Phase 1 patients,promising early signs of anti-tumor activity; also recorded: Evidence of anti-tumor activity observed
same,pro-apoptotic effect,"[4]; Panc1, TL32711 alone",dose-dependent pro-apoptotic effect
same,pro-apoptotic effect with TRAIL co-incubation,"[4]; Panc1, TL32711 with TRAIL",synergized
same,cIAP1 degradation and caspase-3 activation,"[4]; Panc1, immunoblotting",rapid cIAP1 degradation leading to caspase-3 activation
same,TL32711 tumor half-life after increase in exposure,[5],166 h
same,TL32711 tumor half-life before increase in exposure,[5],56 h
same,increase in tumor exposure for a 4-fold increase in dose,[5],14 fold
same,half-life in plasma,[6],20 h
same,half-life in tumor,[6],96 h
same,half-life in the patient,[7]; human,long half-life
same,inter-patient variability in Cmax and AUC,[7]; human,moderate to low
same,retention (half-life) in tumor tissues,[7]; human,49 h
same,t1/2 in PBMCs,[7]; human,29 to 35 h
same,terminal half-life in plasma,[7]; human,35 h
same,terminal half-life in tumor tissue,[7]; human,52 h
same,plasma terminal t½,"[7]; human, iv",73 to 79 h
same,estimated tumor exposure in patients versus primary human tumor xenograft models in mice,[7],in excess of the measured drug levels
same,"Fever, Number of Grade 1 or 2 Events (%)",[8],4 (11%)
same,Grade 3 or Grade 4 Adverse Events attributed to study drug,[8],No Grade 3 or Grade 4 Adverse Events attributed to study drug
same,"Lymphocytopenia, Number of Grade 1 or 2 Events (%)",[8],2 (6%)
same,"Nausea, Number of Grade 1 or 2 Events (%)",[8],5 (14%)
same,"Rash, Number of Grade 1 or 2 Events (%)",[8],3 (8%)
same,relation of efficacy to tumor drug exposure,[9],efficacy correlated with tumor drug exposure
same,tolerability,[10],well tolerated
same,dose-limiting toxicities,[10]; [16],no dose-limiting toxicities
same,maximum tolerated dose (MTD),[10]; [16],has not been reached
same,tolerability,[10]; listed as Compound 15,unexpectedly well tolerated
same,tolerability at 63 mg/m^2,"[10]; two patients, 63 mg/m^2 weekly, 3 weeks on/1 week off",not well tolerated
same,growth inhibition in primary tumor #17624,[11]; 30 mg/kg i.p. twice weekly,significant growth inhibition
same,significant growth inhibition in primary tumor #12872,[11]; 30 mg/kg i.p. twice weekly,not
same,T/C in the 2 primary tumors with suboptimal growth inhibition,[11]; [17],~0.4
same,T/C in the 6 primary tumors with significant growth arrest/inhibition,[11]; [17],−0.1 to 0.2
same,toxicity in the tumor-bearing mice,"[11]; all dose levels (30, 45, 60 mg/kg i.p. twice weekly)",No significant toxicity
same,dose achieving significant growth inhibition in both #17624 and #12872,"[11]; i.p. twice weekly, dose escalation",>= 45 mg/kg
same,anti-tumor activity of biweekly versus weekly dosing schedule,"[12]; 15 mg/kg twice/week versus 30 mg/kg once/week, primary melanoma model",did not result in enhanced anti-tumor activity
same,models with tumor regressions,[12]; [18],4 of the 6
same,reduction in bodyweight (tolerability),[12]; [18],< 14%
same,primary melanoma tumor xenografts with significant tumor growth inhibition,"[12]; single agent TL32711, 30 mg/kg IP",5 of 6 and 5/6
